This passage reports IC50 results from patent US8912200B2, “Alkynyl substituted pyrimidinyl-pyrroles active as kinases inhibitors” (Nerviano Medical Sciences S.R.L., priority 2011, dated 2014).

Molecules are shown by their SMILES.

The target of one experiment is T1, JAK2 kinase domain (Homo sapiens, UniProt O60674).
T1 construct: commercially available JAK2 kinase domain; purchased Invitrogen, Eugene, Oreg
The experiment is described as follows: Biochemical assay for inhibitors of JAK kinase activity (JAK2, 33P-γ-ATP/dowex resin). Particulars: JAK2 kinase domain 1 nM, 60 μM ATP. From the text:
Biochemical Assay for Inhibitors of JAK Kinase Activity
Specific JAK2, JAK1 or JAK3 peptide substrates are trans-phosphorylated by JAK kinases in the presence of ATP traced with 33P-γ-ATP. At the end of the phosphorylation reaction, the unreacted ATP, cold and radioactive, is captured by an excess of dowex ion exchange resin that eventually settles by gravity to the bottom of the reaction plate. The supernatant is subsequently withdrawn and transferred into a counting plate that is then evaluated by β-counting.
500 g of wet resin (SIGMA, custom prepared resin DOWEX 1×8 200-400 mesh, 2.5 Kg) are weighed out and diluted 2 to 1 in 150 mM sodium formate, pH 3.00. The resin is allowed to settle down overnight and then the supernatant is discarded. After three washes as above over a couple of days, the resin is allowed to settle and two volumes (with respect to the resin volume) of 150 mM sodium formate buffer are added.
Kinase buffer was composed of 50 mM HEPES pH 7.5 containing 10 mM MgCl2, 2.5 mM DTT, 10 μM Na3VO4 and 0.2 mg/mL BSA.
JAK2 Specific Assay Conditions
The JAK2 kinase assay was run with a final enzyme concentration of 1 nM, in the presence of 60 μM ATP, 3 nM 33P-γ-ATP and 64 μM of substrate BioDBn*306 (Aminoacid sequence: LPLDKDYYVVREPGQ—SEQ ID NO: 1). The peptidic substrate was purchased from American Peptide Company (Sunnyvale, Calif.).
(§1) For IC50 determination, test compounds are received as a 1 mM solution in 100% DMSO, distributed into 96 well plates: compounds are then plated into the first column of a microtiter plate (A1 to G1), 100 μL/well.
(§2) An automated station for serial dilutions (Biomek FX, Beckman) is used for producing 1:3 dilutions in 100% DMSO, from line A1 to A10, and for all the compounds in the column. Moreover, 4-5 copies of daughter plates are prepared by reformatting 5 μL of this first set of 100% DMSO dilution plates into 384 deep well-plates: one of these plates with the serial dilutions of test compounds will be thawed the day of the experiments, reconstituted at a 3× concentration with water and used in the IC50 determination assays. In a standard experiment, the highest concentration (3×) of all compounds is 30 μM, while the lowest one is 1.5 nM. Each 384 well-plate will contain at least one curve of the standard inhibitor staurosporine and reference wells (total enzyme activity vs. no enzymatic activity) for the Z′ and signal to background evaluation.
384-well plates, V bottom (test plates) are prepared with 5 μL of the compound dilution (3×) and then placed onto a PlateTrak 12 robotized station (Perkin Elmer; the robot has one 384-tip pipetting head for starting the assay plus one 96-tip head for dispensing the resin) together with one reservoir for the Enzyme mix (3×) and one for the ATP mix (3×). At the start of the run, the robot aspirates 5 μL of ATP mix, makes an air gap inside the tips (3 μl) and aspirates 5 μL of JAK2 mix. The following dispensation into the plates plus 3 cycles of mixing, done by the robot itself, starts the kinase reaction. At this point, the correct concentrations are restored for all the reagents. The robot incubates the plates for 60 minutes at room temperature, and then stops the reaction by pipetting 60 μL of dowex resin suspension into the reaction mix. In order to avoid tip clogging, wide bore tips are used to dispense the resin suspension. Three cycles of mixing are done immediately after the addition of the resin. Another mixing cycle is performed after all the plates are stopped, this time using normal tips: the plates are then allowed to rest for about one hour in order to allow resin sedimentation. At this point, 27 μL of the supernatant are transferred into 384-Optiplates (Perkin-Elmer), with 50 μL of Microscint 40 (Perkin-Elmer); after 5 min of orbital shaking the plates are read on a Perkin-Elmer Top Count radioactivity counter. […]

Another experiment deals with T2, Lyn full length (Homo sapiens, UniProt P07948).
T2 construct: The assay has been performed using Lyn full length
Nature of the experiment: Biochemical assay for inhibitors of Lyn (Src family) kinase activity. Particulars: Lyn full length 1 nM, 25 μM ATP.
Source text: Biochemical Assay for Inhibitors of Lck and Lyn (Src Family) Kinases Activity
Specific Lck and Lyn substrates are trans-phosphorylated by Lck and Lyn kinases in the presence of ATP traced with 33P-γ-ATP. At the end of the phosphorylation reaction, the unreacted ATP, cold and radioactive, is captured by an excess of dowex ion exchange resin that eventually settles by gravity to the bottom of the reaction plate. The supernatant is subsequently withdrawn and transferred into a counting plate that is then evaluated by β-counting.
Lyn Specific Assay Conditions
The assay has been performed using Lyn full length (accession number P07948 of UniProtKB/Swiss-Prot database).
Kinase buffer was composed of 50 mM HEPES pH 7.5 containing 3 mM MgCl2, 1 mM DTT, 3 μM Na3VO4, and 0.2 mg/mL BSA.
The Lyn kinase assay was run with a final enzyme concentration of 1 nM, in the presence of 25 μM ATP, 1.5 nM 33P-γ-ATP and 250 μM of substrate ABI 1 (Aminoacid sequence: EAIYAAPFAKKK—SEQ ID NO: 3). The peptidic substrate was purchased from American Peptide Company (Sunnyvale, Calif.).
as §1, §2
384-well plates, V bottom (test plates) are prepared with 5 μL of the compound dilution (3×) and then placed onto a PlateTrak 12 robotized station (Perkin Elmer; the robot has one 384-tip pipetting head for starting the assay plus one 96-tip head for dispensing the resin) together with one reservoir for the Enzyme mix (3×) and one for the ATP mix (3×). At the start of the run, the robot aspirates 5 μL of ATP mix, makes an air gap inside the tips (3 μl) and aspirates 5 μL of JAK2 mix. The following dispensation into the plates plus 3 cycles of mixing, done by the robot itself, starts the kinase reaction. At this point, the correct concentrations are restored for all the reagents. The robot incubates the plates for 60 minutes at room temperature, and then stops the reaction by pipetting 60 μL of dowex resin suspension into the reaction mix. In order to avoid tip clogging, wide bore tips are used to dispense the resin suspension. Three cycles of mixing are done immediately after the addition of the resin. Another mixing cycle is performed after all the plates are stopped, this time using normal tips: the plates are then allowed to rest for about one hour in order to allow resin sedimentation. At this point, 27 μL of the supernatant are transferred into 384-Optiplates (Perkin-Elmer), with 50 μL of Microscint 40 (Perkin-Elmer); after 5 min of orbital shaking the plates are read on a Perkin-Elmer Top Count radioactivity counter.
Data are analyzed by an internally customized version of the SW package “Assay Explorer” that provides sigmoidal fitting of the ten-dilutions curves for IC50 determination in the secondary assays/hit confirmation routines.

Experiment [1] relates to JAK2 dependent human megakaryoblastic leukemia cell line SET-2. The experiment is described as follows: Cell proliferation assay (CellTiter-Glo, 72 hours). The class given is cell-based. Particulars: Homo sapiens, SET-2 cells. How it is done: The JAK2 dependent human megakaryoblastic leukemia cell line SET-2 (DSMZ, Braunschweig GERMANY) and the JAK2 independent human chronic myelogenous leukaemia cell line K562 (ECACC, Wiltshire, UK) were cultured in RPMI-1640 medium-Glutamax (Gibco BRL, Gaithesburg, Md., USA), supplemented with 10% fetal bovine serum (FBS) at 37° C. and 5% CO2.
Cell Proliferation Assay:
Approximately 5×10^3 cells were plated into 384 microtiter plate wells in 50 μL of growth media with different concentrations of inhibitors. The cells were incubated at 37° C. and 5% CO2 for 72 hours, then the plates were processed using CellTiter-Glo assay (Promega, Madison, Wis., USA) following the manufacturer's instruction. Briefly 25 μL/well reagent solution is added to each well and after 5 minutes shaking the micro-plates are read by Envision luminometer (PerkinElmer, Waltham, Mass., USA).
Data are analyzed by Symix Assay Explorer software (Symix Technologies Inc.) that provides sigmoidal fitting algorithm of the 8 points dilutions curves for IC50 determination.
For orientation: Cellular ATP, detected with luciferase, serves as a proxy for viable cell number.

T2 sequence (P07948 whole entry): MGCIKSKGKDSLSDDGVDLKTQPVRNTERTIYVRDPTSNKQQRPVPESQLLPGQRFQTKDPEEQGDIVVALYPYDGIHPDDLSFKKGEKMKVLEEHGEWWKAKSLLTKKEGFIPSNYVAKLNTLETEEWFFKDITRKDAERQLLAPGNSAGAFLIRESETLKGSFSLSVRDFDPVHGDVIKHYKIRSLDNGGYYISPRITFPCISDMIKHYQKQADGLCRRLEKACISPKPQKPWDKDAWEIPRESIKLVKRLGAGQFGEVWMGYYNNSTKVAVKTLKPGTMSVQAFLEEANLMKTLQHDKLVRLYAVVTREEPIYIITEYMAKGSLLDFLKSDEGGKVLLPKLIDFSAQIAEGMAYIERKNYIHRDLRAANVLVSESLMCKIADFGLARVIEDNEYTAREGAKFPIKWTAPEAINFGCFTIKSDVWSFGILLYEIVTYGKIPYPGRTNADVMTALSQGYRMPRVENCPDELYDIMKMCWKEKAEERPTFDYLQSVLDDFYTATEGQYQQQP
T1 sequence (O60674 849-1124 limits assumed): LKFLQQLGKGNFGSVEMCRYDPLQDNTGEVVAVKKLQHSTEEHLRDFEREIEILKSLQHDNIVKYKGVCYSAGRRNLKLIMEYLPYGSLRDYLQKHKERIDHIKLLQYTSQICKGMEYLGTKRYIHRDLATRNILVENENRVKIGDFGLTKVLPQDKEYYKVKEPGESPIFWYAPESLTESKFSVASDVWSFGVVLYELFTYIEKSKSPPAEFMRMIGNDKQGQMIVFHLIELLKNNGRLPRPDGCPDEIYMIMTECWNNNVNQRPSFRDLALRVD

Turning to `Cc1ccc(Cl)cc1-c1[nH]c(-c2nc(N)ncc2C#Cc2ccc(N3CCC(O)CC3)cc2)cc1C(N)=O` [compound 28, 5-(2-Amino-5-{[4-(4-hydroxypiperidin-1-yl)phenyl]ethynyl}pyrimidin-4-yl)-2-(5-chloro-2-methylphenyl)-1H-pyrrole-3-carboxamide], the half-inhibitory concentration (IC50) worked out at 1 nM on JAK2 kinase domain, 1 nM against Lyn full length and 330 nM in experiment [1].

As to `Cc1ccc(Cl)cc1-c1[nH]c(-c2nc(N)ncc2C#Cc2cccc(OC3CCN(C)CC3)c2)cc1C(N)=O` [compound 32, 5-[2-Amino-5-({3-[(1-methylpiperidin-4-yl)oxy]phenyl}ethynyl)pyrimidin-4-yl]-2-(5-chloro-2-methylphenyl)-1H-pyrrole-3-carboxamide], the IC50 was determined as 4 nM on JAK2 kinase domain, 6 nM on Lyn full length and 160 nM in experiment [1].

Regarding `COc1ccc(N2CCN(C)CC2)cc1C#Cc1cnc(N)nc1-c1cc(C(N)=O)c(-c2cc(Cl)ccc2C)[nH]1` [compound 34, 5-(2-Amino-5-{[2-methoxy-5-(4-methylpiperazin-1-yl)phenyl]ethynyl}pyrimidin-4-yl)-2-(5-chloro-2-methylphenyl)-1H-pyrrole-3-carboxamide], the values for the half-inhibitory concentration (IC50) (on JAK2 kinase domain; on Lyn full length; in experiment [1]) were 5 nM, 20 nM and 670 nM, respectively.

For the molecule `Cc1ccc(Cl)cc1-c1[nH]c(-c2nc(N)ncc2C#Cc2ccc(N3CCN(C)CC3)cc2F)cc1C(N)=O` [compound 42, 5-(2-Amino-5-{[2-fluoro-4-(4-methylpiperazin-1-yl)phenyl]ethynyl}pyrimidin-4-yl)-2-(5-chloro-2-methylphenyl)-1H-pyrrole-3-carboxamide], the concentration for half-maximal inhibition (IC50) against JAK2 kinase domain stood at 11 nM; on Lyn full length, 9 nM; in experiment [1], 240 nM.

For `COc1cc(N2CCN(C)CC2)ccc1C#Cc1cnc(N)nc1-c1cc(C(N)=O)c(-c2cc(Cl)ccc2C)[nH]1` [compound 46, 5-(2-Amino-5-{[2-methoxy-4-(4-methylpiperazin-1-yl)phenyl]ethynyl}pyrimidin-4-yl)-2-(5-chloro-2-methylphenyl)-1H-pyrrole-3-carboxamide], the IC50 was found to be 6 nM against JAK2 kinase domain, 18 nM against Lyn full length and 290 nM in experiment [1].

Take `Cc1ccc(Cl)cc1-c1[nH]c(-c2nc(N)ncc2C#Cc2cccc(N3CCN(C)CC3)c2)cc1C(N)=O` [compound 47, 5-(2-Amino-5-{[3-(4-methylpiperazin-1-yl)phenyl]ethynyl}pyrimidin-4-yl)-2-(5-chloro-2-methylphenyl)-1H-pyrrole-3-carboxamide]: the IC50 was determined as 3 nM against JAK2 kinase domain, 6 nM against Lyn full length and 220 nM in experiment [1].

As for `Cc1ccc(Cl)cc1-c1[nH]c(-c2nc(N)ncc2C#Cc2ccc(OC3CCN(C)CC3)cc2)cc1C(N)=O` [compound 48, 5-[2-Amino-5-({4-[(1-methylpiperidin-4-yl)oxy]phenyl}ethynyl)pyrimidin-4-yl]-2-(5-chloro-2-methylphenyl)-1H-pyrrole-3-carboxamide], the IC50 against JAK2 kinase domain came out at 6 nM; on Lyn full length, 8 nM; in experiment [1], 160 nM.

On to `Cc1ccc(Cl)cc1-c1[nH]c(-c2nc(N)ncc2C#Cc2cc(N3CCN(C)CC3)ccc2F)cc1C(N)=O` [compound 49, 5-(2-Amino-5-{[2-fluoro-5-(4-methylpiperazin-1-yl)phenyl]ethynyl}pyrimidin-4-yl)-2-(5-chloro-2-methylphenyl)-1H-pyrrole-3-carboxamide], for which the IC50 against JAK2 kinase domain was 5 nM; on Lyn full length it was 20 nM; in experiment [1], 140 nM.

Turning to `Cc1ccc(Cl)cc1-c1[nH]c(-c2nc(N)ncc2C#CCN2CCN(C)CC2)cc1C(N)=O` [compound 50, 5-{2-Amino-5-[3-(4-methylpiperazin-1-yl)prop-1-yn-1-yl]pyrimidin-4-yl}-2-(5-chloro-2-methylphenyl)-1H-pyrrole-3-carboxamide], the IC50 at JAK2 kinase domain came out at 7 nM; on Lyn full length it was 26 nM; in experiment [1] it was 1380 nM.

With `Cc1ccc(Cl)cc1-c1[nH]c(-c2nc(N)ncc2C#Cc2cccc(NCCN)c2)cc1C(N)=O` [compound 63, 5-[2-Amino-5-({3-[(2-aminoethyl)amino]phenyl}ethynyl)pyrimidin-4-yl]-2-(5-chloro-2-methylphenyl)-1H-pyrrole-3-carboxamide], the IC50 at JAK2 kinase domain is 3 nM; at Lyn full length it was 5 nM; in experiment [1], 100 nM.

In the case of `Cc1ccc(Cl)cc1-c1[nH]c(-c2nc(N)ncc2C#Cc2ccc(CN3CCCC3)cc2)cc1C(N)=O` [compound 66, 5-(2-Amino-5-{[4-(pyrrolidin-1-ylmethyl)phenyl]ethynyl}pyrimidin-4-yl)-2-(5-chloro-2-methylphenyl)-1H-pyrrole-3-carboxamide], the 50% inhibitory concentration (IC50) at JAK2 kinase domain came to 1 nM; against Lyn full length it was 1 nM; in experiment [1] it was 190 nM.

A word on the IC50: it is the midpoint of a concentration-inhibition curve. A lower IC50 goes with greater potency.
